In test [1] the target is T1, CK-1δ (Homo sapiens, UniProt P48730). The test can be described thus: Biochemical kinase assay (HotSpot radioisotope filter binding, Reaction Biology). Further details: purchased Reaction Biology. Particulars: read-out: Biochemical Kinase Assay CK-1d IC50. On the procedure:
Biochemical inhibition of CK-1δ and kinome selectivity was assessed using a HotSpot radioisotope filter binding assay (Reaction Biology). In the HotSpot assay, compounds were incubated with the kinase, substrate, cofactors, and radioisotope-labeled ATP. The reaction mixtures are then spotted onto filter papers, which bind the radioisotope-labeled catalytic product that can be quantified.
(§1) The IC50 ranges are as follows: for NanoBRET IC50 (nM), A denotes <400 nM; B denotes 400 nM≤KD<800 nM; C denotes KD≥800 nM. For the biochemical kinase assay IC50 (nM), A denotes <50 nM; B denotes 50 nM≤IC50<100 nM; C denotes ≥100 nM.

For test [2], the target named is T1, CK-1δ. The test can be described thus: Cellular target engagement (NanoBRET) competition assay. In kind it is cell-based. Details: expressed in transfected cells; host or cells: 293T-HEK cells. Particulars: NanoLuc-tagged kinase in 293T-HEK cells, tracer displacement; read-out: NanoBRET CK-1d IC50. Here is the method: The cell based CK-1δ target engagement assay is a NanoBRET competition assay that directly quantifies compound binding to full length kinases in live cells (Robers M et al. Nat. Comm. No 6 (2015)). The assay utilizes a cell permeable fluorescent tracer that reversibly binds to a NanoLuc-tagged kinase expressed in 293T-HEK cells. Intracellular target engagement of an unmodified test compound was measured by competitive displacement of the tracer resulting in a loss of bioluminescence energy transfer (BRET) that was quantified on a microplate-based luminometer.
as §1

T1 sequence (P48730 whole entry): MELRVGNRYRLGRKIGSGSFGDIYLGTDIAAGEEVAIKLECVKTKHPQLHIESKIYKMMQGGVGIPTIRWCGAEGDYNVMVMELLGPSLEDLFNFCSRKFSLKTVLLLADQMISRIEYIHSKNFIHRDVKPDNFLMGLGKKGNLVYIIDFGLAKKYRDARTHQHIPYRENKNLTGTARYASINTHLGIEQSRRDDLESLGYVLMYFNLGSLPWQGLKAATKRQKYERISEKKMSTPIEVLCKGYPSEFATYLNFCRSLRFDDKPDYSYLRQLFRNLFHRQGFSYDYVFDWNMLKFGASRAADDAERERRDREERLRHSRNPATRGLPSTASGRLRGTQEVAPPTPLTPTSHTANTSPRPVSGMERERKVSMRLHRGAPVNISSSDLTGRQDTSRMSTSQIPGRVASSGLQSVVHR

In the case of `CC(C)Cc1nc(-c2ccncc2)c(-c2ccc(Cl)cc2)c(=O)[nH]1` [Compound 2, 5-(4-chlorophenyl)-2-isobutyl-6-(pyridin-4-yl)pyrimidin-4(3H)-one], the IC50 at CK-1δ [1] is less than 50 nM; on CK-1δ [2] it was less than 400 nM.
Consider `CNc1nc(-c2ccncc2)c(-c2ccc(Cl)cc2)c(=O)n1C` [Compound 1, 5-(4-chlorophenyl)-3-methyl-2-(methylamino)-6-(pyridin-4-yl)pyrimidin-4(3H)-one], for which the concentration for half-maximal inhibition (IC50) on CK-1δ [1] was less than 50 nM; on CK-1δ [2], 400 to 800 nM.
For the compound `Cc1cc(-c2nc(CC(C)C)[nH]c(=O)c2-c2ccc(Cl)cc2F)ccn1` [Compound 3, 5-(4-chloro-2-fluorophenyl)-2-isobutyl-6-(2-methylpyridin-4-yl)pyrimidin-4(3H)-one], the concentration for half-maximal inhibition (IC50) on CK-1δ [1] was 50 to 100 nM; on CK-1δ [2], less than 400 nM.

(Values after patent publication US12371414B2, “Methods of treating neurological disorders” (NEUMORA THERAPEUTICS, INC., priority 2022, dated 2025).)
